Results: ChEMBL document CHEMBL4673401 (ACS Med Chem Lett, 2021)

How the values were obtained:
[1] = molecular target: T1, Indoleamine 2,3-dioxygenase 1 (Homo sapiens, UniProt P14902); experiment: Inhibition of IDO1 in IFNgamma-stimulated human HeLa cells using L-tryptophan as substrate measured after 48 hrs
[2] = molecular target: T1, Indoleamine 2,3-dioxygenase 1; experiment: Inhibition of human IDO1 expressed in Escherichia coli Rosetta using tryptophan as substrate incubated for 1 hr by methylene blue based assay
[3] = molecular target: Tryptophan 2,3-dioxygenase (Homo sapiens, UniProt P48775); experiment: Inhibition of human TDO expressed in Escherichia coli Rosetta using tryptophan as substrate incubated for 1 hr by methylene blue based assay
[4] = system: MC-38; experiment: Antitumor activity against mouse MC38 cells xenografted in humanized PD-1 mouse assessed as tumor growth inhibition at 100 mg/kg, po bid for 14 days in combination with PD-1 antibody at 3 mg/kg, ip qod for 8 days by digital caliper method relative to control; type: functional; settings: MC-38, 336 h, time 14 day, read-out: TGI
[5] = Half life in human liver microsomes; type: ADME, Microsome
[6] = Half life in rat liver microsomes; type: ADME, Microsome
[7] = Protein binding in human plasma by rapid equilibrium dialysis method; type: ADME, cell-free; settings: read-out: PPB (converted)
[8] = Protein binding in dog plasma by rapid equilibrium dialysis method; type: ADME, cell-free, Canis lupus familiaris; settings: read-out: PPB (converted)
[9] = Protein binding in rat plasma by rapid equilibrium dialysis method; type: ADME, cell-free; settings: read-out: PPB (converted)
[10] = molecular target: Voltage-gated inwardly rectifying potassium channel KCNH2 (Homo sapiens, UniProt Q12809); experiment: Inhibition of human ERG expressed in CHO-K1 cells at -90 mV holding potential by automated patch-clamp method; type: cell-based
[11] = molecular target: Cytochrome P450 3A4 (Homo sapiens, UniProt P08684); experiment: Inhibition of CYP3A4 in human liver microsomes using midazolam as substrate incubated for 10 mins in presence of NADPH by UHPLC-MS/MS analysis; type: ADME
[12] = molecular target: Cytochrome P450 2D6 (Homo sapiens, UniProt P10635); experiment: Inhibition of CYP2D6 in human liver microsomes using dextromethorphan as substrate incubated for 10 mins in presence of NADPH by UHPLC-MS/MS analysis; type: ADME
[13] = molecular target: Cytochrome P450 2C19 (Homo sapiens, UniProt P33261); experiment: Inhibition of CYP2C19 in human liver microsomes using S-mephenytoin as substrate incubated for 10 mins in presence of NADPH by UHPLC-MS/MS analysis; type: ADME; settings: read-out: INH
[14] = molecular target: Cytochrome P450 2C9 (Homo sapiens, UniProt P11712); experiment: Inhibition of CYP2C9 in human liver microsomes using tolbutamide as substrate incubated for 10 mins in presence of NADPH by UHPLC-MS/MS analysis; type: ADME
[15] = molecular target: T2, Cytochrome P450 1A2 (Homo sapiens, UniProt P05177); experiment: Inhibition of CYP1A2 in human liver microsomes using phenacetin as substrate incubated for 10 mins in presence of NADPH by UHPLC-MS/MS analysis; type: ADME
T2 sequence (P05177 whole entry): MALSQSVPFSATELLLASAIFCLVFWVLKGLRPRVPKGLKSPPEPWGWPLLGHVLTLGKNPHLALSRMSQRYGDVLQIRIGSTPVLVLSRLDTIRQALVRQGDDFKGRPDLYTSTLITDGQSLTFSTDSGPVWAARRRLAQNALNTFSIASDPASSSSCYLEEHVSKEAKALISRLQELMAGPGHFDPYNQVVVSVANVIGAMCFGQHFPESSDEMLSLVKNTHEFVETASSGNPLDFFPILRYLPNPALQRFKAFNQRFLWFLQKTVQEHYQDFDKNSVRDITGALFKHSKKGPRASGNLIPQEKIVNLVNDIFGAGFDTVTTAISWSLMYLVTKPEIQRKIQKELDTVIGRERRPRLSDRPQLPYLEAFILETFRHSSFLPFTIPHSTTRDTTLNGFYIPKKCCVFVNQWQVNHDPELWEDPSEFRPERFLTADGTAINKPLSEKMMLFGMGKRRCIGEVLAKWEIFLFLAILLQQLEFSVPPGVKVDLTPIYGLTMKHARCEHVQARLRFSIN

[16] = Oral bioavailability in C57BL/6 mouse at 3 mg/kg measured up to 24 hrs; type: ADME, organism-based; settings: in vivo
[17] = Clearance in C57BL/6 mouse at 3 mg/kg, po measured up to 24 hrs; type: ADME, organism-based; settings: in vivo
[18] = Half life in C57BL/6 mouse at 3 mg/kg, po measured up to 24 hrs; type: ADME, organism-based; settings: in vivo
[19] = AUC in C57BL/6 mouse at 3 mg/kg, po measured up to 24 hrs; type: ADME, organism-based; set-up: route oral, dose 3 mg/kg, time <=24; settings: in vivo
[20] = Cmax in C57BL/6 mouse at 3 mg/kg, po measured up to 24 hrs; type: ADME, organism-based; set-up: route oral, dose 3 mg/kg, time <=24; settings: in vivo
[21] = Oral bioavailability in Beagle dog at 2 mg/kg measured up to 24 hrs; type: ADME, organism-based, Canis lupus familiaris; settings: in vivo
[22] = Clearance in Beagle dog at 2 mg/kg, po measured up to 24 hrs; type: ADME, organism-based, Canis lupus familiaris; settings: in vivo
[23] = Half life in Beagle dog at 2 mg/kg, po measured up to 24 hrs; type: ADME, organism-based, Canis lupus familiaris; settings: in vivo
[24] = AUC in Beagle dog at 2 mg/kg, po measured up to 24 hrs; type: ADME, organism-based, Canis lupus familiaris; set-up: route oral, dose 2 mg/kg, time <=24; settings: in vivo
[25] = Cmax in Beagle dog at 2 mg/kg, po measured up to 24 hrs; type: ADME, organism-based, Canis lupus familiaris; set-up: route oral, dose 2 mg/kg, time <=24; settings: in vivo
[26] = Oral bioavailability in Sprague-Dawley rat at 3 mg/kg measured up to 24 hrs; type: ADME, organism-based; settings: in vivo
[27] = Clearance in Sprague-Dawley rat at 3 mg/kg, po measured up to 24 hrs; type: ADME, organism-based; settings: in vivo
[28] = Half life in Sprague-Dawley rat at 3 mg/kg, po measured up to 24 hrs; type: ADME, organism-based; settings: in vivo
[29] = AUC in Sprague-Dawley rat at 3 mg/kg, po measured up to 24 hrs; type: ADME, organism-based; set-up: route oral, dose 3 mg/kg, time <=24; settings: in vivo
[30] = Cmax in Sprague-Dawley rat at 3 mg/kg, po measured up to 24 hrs; type: ADME, organism-based; set-up: route oral, dose 3 mg/kg, time <=24; settings: in vivo
[31] = Toxicity in humanized PD-1 mouse xenografted with mouse MC38 cells assessed as effect on body weight at 100 mg/kg, po bid for 14 days in combination with PD-1 antibody at 3 mg/kg, ip qod for 8 days; type: organism-based; settings: in vivo, 336 h, time 14 day

Chain of Tryptophan 2,3-dioxygenase (P48775 whole entry): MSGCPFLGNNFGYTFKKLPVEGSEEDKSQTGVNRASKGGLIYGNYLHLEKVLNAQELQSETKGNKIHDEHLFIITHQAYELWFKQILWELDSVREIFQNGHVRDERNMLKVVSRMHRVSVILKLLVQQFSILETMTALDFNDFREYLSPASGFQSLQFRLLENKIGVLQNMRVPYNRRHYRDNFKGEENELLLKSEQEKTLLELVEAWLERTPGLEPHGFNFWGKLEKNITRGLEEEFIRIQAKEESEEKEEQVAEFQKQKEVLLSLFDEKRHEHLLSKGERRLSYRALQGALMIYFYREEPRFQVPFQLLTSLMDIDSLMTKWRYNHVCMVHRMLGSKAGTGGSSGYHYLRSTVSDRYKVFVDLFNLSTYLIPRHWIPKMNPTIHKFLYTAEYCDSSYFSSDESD
T1 sequence (P14902 whole entry): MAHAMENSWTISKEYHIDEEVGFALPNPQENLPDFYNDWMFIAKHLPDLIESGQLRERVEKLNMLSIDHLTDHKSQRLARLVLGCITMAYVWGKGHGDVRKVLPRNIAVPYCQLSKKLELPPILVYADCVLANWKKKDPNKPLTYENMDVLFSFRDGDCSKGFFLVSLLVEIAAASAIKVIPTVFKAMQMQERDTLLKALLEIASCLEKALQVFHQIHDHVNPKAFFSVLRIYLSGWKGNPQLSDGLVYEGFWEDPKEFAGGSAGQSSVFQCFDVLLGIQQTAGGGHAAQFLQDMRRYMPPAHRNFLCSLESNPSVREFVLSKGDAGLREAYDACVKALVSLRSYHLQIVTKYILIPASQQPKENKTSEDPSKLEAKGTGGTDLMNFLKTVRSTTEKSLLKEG
Chain of Cytochrome P450 2C9 (P11712 whole entry): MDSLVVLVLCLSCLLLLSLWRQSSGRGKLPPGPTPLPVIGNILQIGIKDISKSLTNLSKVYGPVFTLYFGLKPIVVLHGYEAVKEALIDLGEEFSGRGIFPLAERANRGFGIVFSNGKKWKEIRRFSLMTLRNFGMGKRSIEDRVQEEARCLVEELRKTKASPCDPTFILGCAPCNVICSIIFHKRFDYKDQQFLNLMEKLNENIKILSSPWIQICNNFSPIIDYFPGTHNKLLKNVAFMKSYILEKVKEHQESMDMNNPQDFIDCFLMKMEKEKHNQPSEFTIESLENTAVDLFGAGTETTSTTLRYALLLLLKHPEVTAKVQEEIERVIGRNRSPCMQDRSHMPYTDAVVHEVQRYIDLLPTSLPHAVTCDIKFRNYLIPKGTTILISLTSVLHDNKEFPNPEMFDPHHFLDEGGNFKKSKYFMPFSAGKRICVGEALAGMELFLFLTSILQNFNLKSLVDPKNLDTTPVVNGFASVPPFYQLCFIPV
Chain of Cytochrome P450 3A4 (P08684 whole entry): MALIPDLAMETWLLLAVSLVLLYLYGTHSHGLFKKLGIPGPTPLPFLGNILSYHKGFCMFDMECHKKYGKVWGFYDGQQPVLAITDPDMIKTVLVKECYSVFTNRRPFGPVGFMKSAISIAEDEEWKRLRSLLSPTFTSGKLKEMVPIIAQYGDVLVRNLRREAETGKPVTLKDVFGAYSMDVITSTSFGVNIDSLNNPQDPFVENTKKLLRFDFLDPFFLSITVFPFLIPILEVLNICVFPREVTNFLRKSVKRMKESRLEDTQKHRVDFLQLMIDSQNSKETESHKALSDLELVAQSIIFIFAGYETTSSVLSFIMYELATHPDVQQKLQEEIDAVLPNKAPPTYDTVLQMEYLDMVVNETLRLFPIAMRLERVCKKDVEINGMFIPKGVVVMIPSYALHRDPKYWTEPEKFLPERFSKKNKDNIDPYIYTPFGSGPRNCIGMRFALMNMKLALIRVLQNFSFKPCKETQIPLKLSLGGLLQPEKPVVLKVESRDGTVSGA
Chain of Cytochrome P450 2D6 (P10635 whole entry): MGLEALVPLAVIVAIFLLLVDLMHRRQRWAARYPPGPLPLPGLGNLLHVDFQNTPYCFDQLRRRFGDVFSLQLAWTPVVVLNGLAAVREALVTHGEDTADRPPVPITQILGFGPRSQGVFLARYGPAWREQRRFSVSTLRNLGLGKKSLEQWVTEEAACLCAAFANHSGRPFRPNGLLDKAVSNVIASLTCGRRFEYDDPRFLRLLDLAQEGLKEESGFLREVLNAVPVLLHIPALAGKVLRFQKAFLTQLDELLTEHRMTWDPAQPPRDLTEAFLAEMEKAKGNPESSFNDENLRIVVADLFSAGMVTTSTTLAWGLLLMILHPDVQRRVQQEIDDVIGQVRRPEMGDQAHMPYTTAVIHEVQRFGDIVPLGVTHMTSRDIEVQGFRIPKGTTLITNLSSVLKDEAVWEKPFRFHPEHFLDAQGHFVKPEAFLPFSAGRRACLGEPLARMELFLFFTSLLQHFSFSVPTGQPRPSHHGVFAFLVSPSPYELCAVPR
Chain of Voltage-gated inwardly rectifying potassium channel KCNH2 (Q12809 whole entry): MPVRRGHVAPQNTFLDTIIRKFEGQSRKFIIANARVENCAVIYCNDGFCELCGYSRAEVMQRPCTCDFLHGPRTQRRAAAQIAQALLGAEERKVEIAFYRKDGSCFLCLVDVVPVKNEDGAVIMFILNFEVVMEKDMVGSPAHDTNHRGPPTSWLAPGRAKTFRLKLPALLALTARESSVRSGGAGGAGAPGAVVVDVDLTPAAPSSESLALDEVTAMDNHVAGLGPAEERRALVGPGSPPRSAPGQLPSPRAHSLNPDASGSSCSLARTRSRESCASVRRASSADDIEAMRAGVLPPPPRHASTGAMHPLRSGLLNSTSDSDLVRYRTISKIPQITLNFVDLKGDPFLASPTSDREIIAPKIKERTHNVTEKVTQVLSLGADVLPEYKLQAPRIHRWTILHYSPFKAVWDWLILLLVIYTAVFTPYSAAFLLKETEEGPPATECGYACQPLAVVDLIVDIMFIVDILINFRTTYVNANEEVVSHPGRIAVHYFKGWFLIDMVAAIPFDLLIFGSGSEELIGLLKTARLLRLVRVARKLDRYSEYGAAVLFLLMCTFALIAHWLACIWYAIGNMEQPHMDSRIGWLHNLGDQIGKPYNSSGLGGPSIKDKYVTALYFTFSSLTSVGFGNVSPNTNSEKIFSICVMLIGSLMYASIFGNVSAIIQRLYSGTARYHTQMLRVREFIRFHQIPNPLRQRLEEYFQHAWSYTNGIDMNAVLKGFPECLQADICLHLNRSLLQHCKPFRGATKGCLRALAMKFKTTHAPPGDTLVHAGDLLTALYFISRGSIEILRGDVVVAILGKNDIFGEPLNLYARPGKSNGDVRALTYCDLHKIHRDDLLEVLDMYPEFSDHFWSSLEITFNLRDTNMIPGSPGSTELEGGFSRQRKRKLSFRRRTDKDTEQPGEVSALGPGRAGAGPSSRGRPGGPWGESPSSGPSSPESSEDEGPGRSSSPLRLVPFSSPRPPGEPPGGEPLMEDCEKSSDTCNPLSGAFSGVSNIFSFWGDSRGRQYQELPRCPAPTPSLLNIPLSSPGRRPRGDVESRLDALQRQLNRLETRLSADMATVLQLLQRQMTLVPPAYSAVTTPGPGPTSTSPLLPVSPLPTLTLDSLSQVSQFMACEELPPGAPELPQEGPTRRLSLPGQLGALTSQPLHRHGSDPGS
Chain of Cytochrome P450 2C19 (P33261 whole entry): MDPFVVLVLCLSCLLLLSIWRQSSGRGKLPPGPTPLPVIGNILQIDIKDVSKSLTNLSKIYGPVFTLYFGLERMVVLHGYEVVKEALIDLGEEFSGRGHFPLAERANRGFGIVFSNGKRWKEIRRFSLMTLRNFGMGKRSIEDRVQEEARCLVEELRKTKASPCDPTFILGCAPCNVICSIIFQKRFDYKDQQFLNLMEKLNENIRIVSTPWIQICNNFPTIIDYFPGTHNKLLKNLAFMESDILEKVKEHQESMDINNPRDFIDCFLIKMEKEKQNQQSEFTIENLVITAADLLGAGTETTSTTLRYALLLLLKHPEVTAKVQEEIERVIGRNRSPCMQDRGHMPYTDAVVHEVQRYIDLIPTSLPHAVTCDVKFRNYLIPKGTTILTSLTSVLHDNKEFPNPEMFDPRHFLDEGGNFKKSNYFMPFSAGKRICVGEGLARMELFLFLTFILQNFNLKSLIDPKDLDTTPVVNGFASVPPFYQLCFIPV

In the case of `O=C(Nc1ccccc1)[C@H]1CC[C@H](C(=O)/C(=N/O)Nc2ccc(F)c(Br)c2)CC1`, the IC50 [1] is reported as 197 nM, the IC50 [2] is reported as 150 nM and the IC50 [3] is reported as > 100000 nM.
In the case of `O=C(/C(=N/O)Nc1ccc(F)c(Br)c1)C1CCN(S(=O)(=O)Nc2ccccc2)CC1`, the IC50 [1] is reported as 150 nM, the IC50 [2] is reported as 98 nM and the IC50 [3] is reported as 65700 nM.
Compound `NS(=O)(=O)NCCNc1nonc1C(=NO)Nc1ccc(F)c(Br)c1` [EPACADOSTAT] has an inhibition in vivo at 100 mg/kg [4] of 66.9%, a half-life [5] of 4.88 h and a half-life [6] of 1.22 h. For the same compound, the fraction unbound [7] was 0.015, the fraction unbound [8] was 0.025 and the fraction unbound [9] was 0.03. For the same compound, the INH [10] was > 30 µM, the INH [11] was > 10 µM and the INH [12] was > 10 µM. The IC50 [13] was > 10000 nM, the INH [14] was > 10 µM and the INH [15] was > 10 µM. The bioavailability [16] was 44%, the clearance [17] was 49.2 mL/min/kg and the half-life [18] was 2.41 h. It also gave an AUC at 24 h [19] of 1020 ng·h/mL, a Cmax [20] of 253 ng/mL and a bioavailability [21] of 50%. For the same compound, the clearance [22] was 36.6 mL/min/kg, the half-life [23] was 5.03 h and the AUC at 24 h [24] was 676 ng·h/mL. For the same compound, the Cmax [25] was 245 ng/mL, the bioavailability [26] was 55% and the clearance [27] was 29 mL/min/kg. For the same compound, the half-life [28] was 2.73 h, the AUC at 24 h [29] was 807 ng·h/mL and the Cmax [30] was 133 ng/mL. For the same compound, the Activity [31] was “Non-Toxic” and the IC50 [3] was > 100000 nM.
With `O=C(/C(=N/O)Nc1ccc(F)c(Br)c1)C1CCN(S(=O)(=O)NCc2ccccc2)CC1` the IC50 [1] was 262 nM, the IC50 [2] was 24 nM and the IC50 [3] was > 100000 nM.
With `O/N=C(/CC1CCCCC1)Nc1ccc(F)c(Br)c1` the IC50 [1] was 578 nM, the IC50 [2] was 497 nM and the IC50 [3] was > 100000 nM.
In the case of `O=C(/C(=N/O)Nc1ccc(F)c(Br)c1)C1CCN(C(=O)c2ccccc2)CC1`, the IC50 [1] is reported as 281 nM, the IC50 [2] is reported as 106 nM and the IC50 [3] is reported as > 100000 nM.
In the case of `O=C(/C(=N/O)Nc1ccc(F)c(Br)c1)c1ccco1`, the IC50 [1] is reported as 1680 nM, the IC50 [2] is reported as 467 nM and the IC50 [3] is reported as > 100000 nM.
`O=C(/C(=N/O)Nc1ccc(F)c(Br)c1)C1CCN(C(=O)NCc2ccccc2)CC1` showed an IC50 [1] of 28 nM, an IC50 [2] of 43 nM and an IC50 [3] of 89800 nM.
For `Cn1cc(-c2ccc(NC(=O)N3CCC(C(=O)/C(=N/O)Nc4ccc(F)c(Br)c4)CC3)cc2)cn1`, the half-life [23] was 1.1 h, the AUC at 24 h [24] was 255 ng·h/mL and the Cmax [25] was 140 ng/mL. For the same compound, the half-life [28] was 5.08 h, the AUC at 24 h [29] was 1030 ng·h/mL and the Cmax [30] was 173 ng/mL. For the same compound, the IC50 [1] was 15 nM, the IC50 [2] was 14 nM and the IC50 [3] was > 100000 nM.
For `NS(=O)(=O)NC[C@H]1CC[C@H](C(=O)/C(=N/O)Nc2ccc(F)c(Br)c2)CC1`, the IC50 [1] was 21 nM, the IC50 [2] was 198 nM and the IC50 [3] was 58700 nM.
